Read-outs that look alike come from different tables or passages of the source.
System: E. coli ATCC 25922
Experiment: Phototoxicity test c.1) (LED array 430-435 nm, CFU count by Miles and Misra)
Assay type: cell-based, Escherichia coli
Details: Escherichia coli, ATCC25922, light or radiation study, light dose 33.8 J/cm^2, approx. 435 nm, 60 min at 9.4 mW/cm^2, vs reference control; for log reduction at 10 µM: read-out: Effectiveness against E. Coli: Reduction in CFU in log10 at concentration of 10 μM; for log reduction at 50 µM: read-out: Effectiveness against E. Coli: Reduction in CFU in log10 at concentration of 50 μM
Description: A sample of the bacterial cell Staphylococcus. aureus (ATCC number: 25923) or Escherichia. coli (ATCC number: 25922) was removed from a cryo-freeze culture and cultured under aerobic conditions at 37° C. and 175 rpm overnight in an orbital shaker (MAXQ4000, Thermo Scientific, Dubuque, Iowa, USA). Growth was carried out in 20 mL Todd-Hewitt broth (Carl Roth, Karlsruhe, Germany) supplemented with 0.3% of yeast extract (AppliChem, Darmstadt, Germany).
Subsequently, dilutions (0, 5, 10, […] and 20% v/v of the overnight culture) and their absorptions were measured at 600 nm in triplicate for 100 μL (Infinite 200 M Pro, Tecan, Mannedorf, Switzerland). A calibration graph (Microsoft Excel) was used to calculate the volume which was required to produce 20 mL of a culture with an absorption of 0.05 at 600 nm. The volume calculated for the overnight culture was topped up with Todd-Hewitt broth (composition as above) to 20 mL and incubated for two hours at 37° C. with constant movement (175 rpm, MAXQ4000). The cultures were then in the exponential growth phase; the absorption at 600 nm was between 0.3 and 0.45.
A 2-hour culture was divided into 1800 μL aliquots. After centrifuging at 20° C., 830 rcf, 5 min (5417R centrifuge, Eppendorf, Hamburg, Germany), the pellets were re-suspended in phosphate buffer (Dulbeccos' Modified Phosphate Saline, DPBS, Sigma-Aldrich) with either 10 or 50 μM of the corresponding photosensitizer, wherein the final volume was kept at 1800 μL.
The solutions obtained were immediately incubated on the orbital shaker (see above for parameters) for 5 or 25 minutes.
Three controls were run at the same time for each photosensitizer. The “light only” control contained DPBS without photosensitizer. The “photosensitizer only” (“PS only”) control was incubated like the PDI samples, but not irradiated and kept strictly in darkness. A further control (double negative, “Co−/−”), received neither light nor photosensitizer.
After the incubation, duplicates of the samples (500 μL each) were transferred into a 24-well microtitre plate (Cellstar, Greiner Bio-One, Frickenhausen, Germany). The “PS only” and “Co −/−” samples were placed in their own microtitre plate which was packed in aluminium foil so as to be lightproof.
The irradiation was carried out under constant shaking (MTS4, IKA, Staufen, Germany, 175 rpm) from below on a LED array with maximum homogeneity of the lighting surface. All of the controls were shaken in the same manner. The technical data for the light source are shown in Table 2; the total dose of light applied was 33.8 J/cm^2.
The determination of the colony forming units (CFU) was carried out in accordance with the method published by Miles and Misra (Miles, A A; Misra, S S, Irwin, J O (1938 Nov.). “The estimation of the bactericidal power of the blood” The Journal of hygiene 38 (6): 732-49). In this regard, serial dilutions (1:10) of the corresponding bacterial suspension were produced in DPBS. 5×10 μL of each bacterial dilution was then dripped onto Todd-Hewitt plates (with broth, additional 1.5% agar (Agar-Agar, Kobe I, Roth, Karlsruhe, Germany) and incubated at 37° C. for 24 h. Next, the number of surviving colony forming units was determined. All of the tests were carried out four times.
The photosensitizers were tested against the bacterial strain E. coli ATCC 25922. FIGS. 1-20 show the measured surviving colony forming units (CFU).
The average reference control (arithmetic mean with standard deviation) (no light, no PS) was 3.6×10^8/mL. The logarithmic reduction after illumination is shown with respect to the reference control. The respective upper value, indicated by a *, refers to an incubation period of 5 min and the respectively lower value, indicated by a #, refers to an incubation period of 25 min.

[1] = 5 min, incubation period 5 min (upper value, *)
[2] = 25 min, incubation period 25 min (lower value)

SMILES: COc1cc(/C=C/C(=O)CC(=O)/C=C/c2ccc(OCCN)c(OC)c2)ccc1OCCN.Cl.Cl [Curcumin 01a hydrochloride]
- log reduction at 10 µM [1]: > 1
- log reduction at 50 µM [1]: > 5
- log reduction at 10 µM [2]: > 2
- log reduction at 50 µM [2]: > 5

SMILES: Cl.Cl.Cl.Cl.NCCOc1ccc(/C=C/C(=O)CC(=O)/C=C/c2ccc(OCCN)c(OCCN)c2)cc1OCCN [Curcumin 03 hydrochloride]
- log reduction at 10 µM [1]: > 7
- log reduction at 50 µM [1]: > 7
- log reduction at 10 µM [2]: > 7
- log reduction at 50 µM [2]: > 7
